In patent US20100273757A1, “PYRAZINE DERIVATIVES USEFUL AS ADENOSINE RECEPTOR ANTAGONISTS” (Laboratorios Almirall, S.A., priority 2005, published 2010):

Molecular target: T1, human A2B receptor (Homo sapiens, UniProt P29275)
T1 construct: host or cells: HEK293 cells stably expressing the receptor; membranes prepared from them
T1 sequence (P29275 1-332): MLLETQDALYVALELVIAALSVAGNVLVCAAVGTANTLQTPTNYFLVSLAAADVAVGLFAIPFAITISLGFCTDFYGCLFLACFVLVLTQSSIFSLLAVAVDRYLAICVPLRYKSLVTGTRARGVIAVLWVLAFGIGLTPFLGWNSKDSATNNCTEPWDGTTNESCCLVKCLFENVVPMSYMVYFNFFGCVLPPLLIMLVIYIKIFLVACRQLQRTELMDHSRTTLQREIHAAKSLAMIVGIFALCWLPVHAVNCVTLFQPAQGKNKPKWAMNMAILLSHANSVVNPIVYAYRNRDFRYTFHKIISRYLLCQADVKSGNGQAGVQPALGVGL
Experiment: Adenosine 2B receptor subtype competition radioligand binding assay
Conditions: [3H]-DPCPX competition, membranes from HEK293 cells expressing human A2B receptor
Experimental: A2B membranes were prepared from HEK293 cells stably expressing the human A2B receptor that were purchased from Euroscreen (ES-013-C). […] At the end of the incubation, samples were transferred to a GF/C filter plates (Milipore MAFCN0B50) pretreated for 15 min. with 250 μl of Tris-HCl 50 mM pH 6.5 (Buffer B). Samples were then filtered 4 times with 250 μl of buffer B. Samples were counted using 30 μl of Hisafe II (Perkin Elmer) in a Trilux counter.

Row | Structure (SMILES) | Ki [nM]
1 | COc1nc(-c2ccncc2)c(-c2ccco2)nc1N [Example 67, 6-(2-Furyl)-3-methoxy-5-pyridin-4-ylpyrazin-2-amine] | 9
2 | O=C(Nc1cnc(-c2ccncc2Cl)c(-c2ccccn2)n1)C1CC1 [Example 22, N-[5-(3-Chloropyridin-4-yl)-6-pyridin-2-ylpyrazin-2-yl]cyclopropanecarboxamide] | 16
3 | O=c1[nH]c2nc(-c3ccncc3)c(-c3cccc(F)c3)nc2[nH]1 [Example 76, 5-(3-Fluorophenyl)-6-pyridin-4-yl-1,3-dihydro-2H-imidazo[4,5-b]pyrazin-2-one] | 4

More lines, in order of falling Ki, values ahead:

Row | Ki [nM] | Structure (SMILES)
4 | 4 | Nc1cnc(-c2ccncc2F)c(-c2cccc(F)c2)n1 [Example 3, 6-(3-Fluorophenyl)-5-(3-fluoropyridin-4-yl)pyrazin-2-amine]
5 | 3 | COc1ccc(-c2nc(NC(=O)C3CC3)cnc2-c2ccncc2F)cn1 [Example 119, N-[5-(3-Fluoropyridin-4-yl)-6-(6-methoxypyridin-3-yl)pyrazin-2-yl]cyclopropane carboxamide]
6 | 0.9 | Fc1cnccc1-c1nc2cc(-c3cccnc3)[nH]c2nc1-c1cccnc1 [Example 149, 2-(3-Fluoropyridin-4-yl)-3,6-dipyridin-3-yl-5H-pyrrolo[2,3-b]pyrazine]
